Converted amounts (≈) assume the structure as drawn.
What was measured:
[1] = tested on: Trichophyton mentagrophytes KD-04; experiment: Antifungal activity evaluation test, MIC, Trichophyton mentagrophytes KD-04; assay type: cell-based; conditions: KD04, 168 h, Sabouraud Dextrose Broth, 30° C., 7 days, visual, read-out: MIC T. men. KD-04
[2] = tested on: Trichophyton mentagrophytes SM-110; experiment: Antifungal activity evaluation test, MIC, Trichophyton mentagrophytes SM-110; assay type: cell-based; conditions: SM110, 168 h, Sabouraud Dextrose Broth, 30° C., 7 days, visual, read-out: MIC T. men. SM-110
[3] = tested on: Trichophyton rubrum KD-101; experiment: Antifungal activity evaluation test, MIC, Trichophyton rubrum KD-101; assay type: cell-based; conditions: KD101, 168 h, Sabouraud Dextrose Broth, 30° C., 7 days, visual, read-out: MIC T. rub. KD-101
[4] = tested on: Trichophyton rubrum KD-107; experiment: Antifungal activity evaluation test, MIC, Trichophyton rubrum KD-107; assay type: cell-based; conditions: KD107, 168 h, Sabouraud Dextrose Broth, 30° C., 7 days, visual, read-out: MIC T. rub. KD-107
[5] = tested on: Malassezia furfur IFO-0656; experiment: Antifungal activity evaluation test, MIC by urease activity, Malassezia furfur IFO-0656; assay type: cell-based; conditions: IFO0656, 96 h, MU medium, 30° C., day 4 or 5, urease activity of 20% or below, read-out: MIC M. fur. IFO-0656
[6] = tested on: Trichophyton mentagrophytes KD-04; experiment: Influence of keratin addition on anti-Trichophyton activity; assay type: cell-based; conditions: Trichophyton mentagrophytes, KD04, 168 h, 30° C., 7 days
Method: The MIC increase rate by the addition of keratin to a medium was measured by the following procedure. • Test compound solution: A test compound was dissolved in dimethyl sulfoxide (DMSO) at a concentration of 5 mg/mL as a stock solution. Diluting this solution with DMSO, a 2-fold dilution series was prepared. • Test strain: Trichophyton mentagrophytes KD-04 was used. Preparation of Fungal Inoculum: the Above-Mentioned Strain was suspended in 0.05% Tween 80-containing physiological saline, and adjusted to a fungus concentration of 2×10^6 cells/mL using a counting chamber. […] The physiological saline was removed, and the mixture was further washed once with physiological saline (3 mL). The physiological saline was removed, and a test compound solution (10 μL) and Sabouraud Dextrose Broth (Difco) (500 μL) were added to keratin, and the mixture was sufficiently stirred. Then, inoculum (500 μL) of T. mentagrophytes KD-04 was added, and the mixture was cultured at 30° C. for 7 days. As a comparison control, an experiment similar to the above was performed under conditions free of keratin addition.

TNCB-induced dermatitis = experiment: 2,4,6-Trinitrochlorobenzene (TNCB)-induced dermatitis model, ear edema; assay type: in vivo, male BALB/c mouse; conditions: test compound 1 w/v % (FK506 0.1 w/v %), 20 μL applied to auricle, 24 hours after induction
OVA-induced dermatitis = experiment: Ovalbumin (OVA)-induced dermatitis model, ear edema; assay type: in vivo, male ICR mouse; set-up: key: ratio of compound's ear edema inhibition rate to FK506's (FK506 = 1.0); conditions: test compound 1 w/v % (FK506 0.1 w/v %), 20 μL applied to auricle, 24 hours after induction
[7] = T. mentagrophytes KD-04, free of keratin addition, read-out: MIC SDB alone
[8] = T. mentagrophytes KD-04, keratin 50 mg added, read-out: MIC SDB + keratin

Structure (SMILES) | MIC [1] [µg/mL] | MIC [2] [µg/mL] | MIC [3] [µg/mL] | MIC [4] [µg/mL] | MIC [5] [µg/mL] | MIC [6, 7] [µg/mL] | MIC [6, 8] [µg/mL] | TNCB-induced dermatitis, with ear edema inhibition rate of FK506 as 1.0 (TNCB-induced dermatitis) | OVA-induced dermatitis, with ear edema inhibition rate of FK506 as 1.0 (OVA-induced dermatitis)
COc1ccc(COc2ccccc2C(=NN(C)C)n2ccnc2)cc1 [Compound No. 52, N′-[1-imidazol-1-yl-1-[2-(4-methoxybenzyloxy)phenyl]methylidene]-N,N-dimethylhydrazine] | 0.2 (≈ 0.571 µM) | 0.39 (≈ 1.11 µM) | 0.05 (≈ 0.143 µM) | 0.05 (≈ 0.143 µM) | 0.39 (≈ 1.11 µM) | 0.1 (≈ 0.285 µM) | 0.2 | 0.7 | 1.1
CN(C)N=C(c1ccccc1OCCOc1ccccc1)n1ccnc1 [Compound No. 66, N′-[1-imidazol-1-yl-1-[2-(2-phenoxyethoxy)phenyl]methylidene]-N,N-dimethylhydrazine] | 0.1 (≈ 0.285 µM) | 0.2 (≈ 0.571 µM) | 0.1 (≈ 0.285 µM) | 0.05 (≈ 0.143 µM) | 0.39 (≈ 1.11 µM) | 0.05 (≈ 0.143 µM) | 0.1 | 0.8 | 1.1
CCCCSc1ccccc1C(=NN(C)C)n1ccnc1 [Compound No. 82, N′-[1-(2-butylthiophenyl)-1-imidazol-1-ylmethylidene]-N,N-dimethylhydrazine] | 0.05 (≈ 0.165 µM) | 0.2 (≈ 0.661 µM) | 0.1 (≈ 0.331 µM) | 0.05 (≈ 0.165 µM) | 0.78 (≈ 2.58 µM) | 0.1 (≈ 0.331 µM) | 0.2 | 0.6 | 1.1
c1ccc(OCCOc2ccccc2C(=NN2CCCC2)n2ccnc2)cc1 [Compound No. 161, [1-imidazol-1-yl-1-[2-(2-phenoxyethoxy)phenyl]methylidene]pyrrolidin-1-ylamine] | 0.2 (≈ 0.531 µM) | 0.39 (≈ 1.04 µM) | 0.1 (≈ 0.266 µM) | 0.1 (≈ 0.266 µM) | 0.39 (≈ 1.04 µM) | – | – | 0.7 | 0.9

Source: patent US8022072B2, “Azolylmethylidenehydrazine derivative and use thereof” (Kaken Pharmaceutical Co., Ltd., priority 2007, dated 2011)
